In US7723289B2, “PIF tetrapeptides” (BioIncept, LLC, priority 2003, dated 2010):

Experiments:
epithelial cells = experiment: PIF binding to endometrial epithelial cells (MaBCD2 staining); design: species or system human; conditions: compared to non-relevant IgG
Description: In addition, to compare the recovery of β-3 integrin expression with PIF effects described after cultured hEEC in a free-fetal bovine serum (FBS) medium some cells were cultured again in FBS-medium. […] PIF binding to epithelial cells was also examined. Binding was examined using MaBCD2 staining.

PBMC = experiment: Cytokine release (ELISA) and intracellular cytokine staining in stimulated PBMC; format: cell-based, human
Description: FIG. 2. sPIF-1(15) (SEQ ID NO:13) increases the percentage of PBMC that contain TH2 type cytokines (IL10, IL 4), while scrPIF-1(15) (SEQ ID NO: 5) has a TH1 bias (INFgamma). Isolated PBMC were stimulated by PHA (1 ug/ml) and cultured 2-4 days with sPIF-1(15) (SEQ ID NO:13) or scrPIF-1(15) (SEQ ID NO:5). 30 nM. PBMC cytokines content was determined by specific staining using flow cytometry. Effect of PIF-1 on cellular content of cytokines of PBMC was examined up to 96 hours and a time dependent pattern emerged, not replicated by scrambled or irrelevant peptide. Measurements were carried out in two separate stages. At the cellular induction/synthetic level, lymphocytes were cultured in the presence of PHA for various periods with or without PIF-1 then processed for intracellular immunostaining (activation by PMA plus ionomycin in the presence of monenisn and berfeldin, followed by permeabilization and immunostaining) for the detection of nascent cytokines.
Human PBMC were isolated and cultured for 2-4 days in AIM-V medium containing 0 to 200 nM of sPIF-115 (SEQ ID NO:13) or scrPIF-115 (SEQ ID NO:5). The following proliferation-activating agents were used: anti-CD3 antibody (10 μg/ml solution) bound on the plate wells in the presence or absence of IL-2 at 10 μg/ml; phytohemmaglutinin (PHA) at 4 μg/ml. The effects of sPIF-115 (SEQ ID NO:13) or scrPIF-115 (SEQ ID NO:5) peptides were also determined by the mixed lymphocyte reaction (MLR) after 3 days in heterologous cultures of PBMC with cells previously treated with mitomycin C (100 μg/ml for 4 h). Cell proliferation was determined by tritiated thymidine incorporation (16 h) of 72-h culture. Cytokine release (IL-4, IL-10, IFN-γ and TNF-α) into culture supernatants was determined at 72 h of culture by ELISA (R&D System).

**Q.** For MVRIKPGSANKPSDD [sPIF-1(15)], which “binding to epithelial cells” value (epithelial cells) is on record?
**A.** Its value is “highest binding”.

**Q.** And the “percentage of PBMC that contain TH2 type cytokines (IL10, IL 4)” value (PBMC; PHA 1 ug/ml, 2-4 days, 30 nM, flow cytometry)?
**A.** Its value is “increases”.

**Q.** What about the IFN-γ decrease (PBMC; one day after IL-10 increase) of the same sequence?
**A.** Its IFN-γ decrease is 30%.

**Q.** And the “increase in number of IL-10 secreting cells” value (PBMC; starting at day 2, peaking at days 3-4)?
**A.** The value was 50-60%.

**Q.** What about the “increase of TH2/TH1 cytokine ratio in PBMC” value (PBMC; stimulated PBMC) of the same sequence?
**A.** Its value is “more than five-fold”.

**Q.** And the “IFN-γ release in culture supernatants” value (PBMC; stimulated PBMC, 72 h, ELISA)?
**A.** The value was “significantly decreased”.

**Q.** And the IL-4 release (PBMC; stimulated PBMC, 72 h, ELISA)?
**A.** Its IL-4 release is “does not have a significant effect”.

**Q.** What about the “IL-10 release in culture supernatants” value (PBMC; stimulated PBMC, 72 h, ELISA) of the same sequence?
**A.** The value was “significantly increased”.

**Q.** What about the TNF-α release (PBMC; stimulated PBMC, 72 h, ELISA) of the same sequence?
**A.** Its TNF-α release is “does not have a significant effect”.
